Laboratory results from patent publication US20070275968A1, “Substituted Biphenyl Derivative” (priority 2004, published 2007).
Values belong to the molecule of their own block, whether it stands above or below them.

How the values were obtained:
[1] = system: NRK-49F cells; experiment: Collagen synthesis inhibition test; assay type: cell-based; details: Rattus norvegicus, 25 ng/mL TGF-β added, cultured about 44 hr, 3H-labeled proline taken into collagen, no TGF-β = 100% inhibition, no test compound = 0% inhibition, read-out: Collagen synthesis inhibiting activity IC50
Description: Collagen Synthesis Inhibition Test
Collagen synthesis inhibiting activity was evaluated by the following assay.
NRK-49F cells (Dainippon Pharmaceutical) are seeded into a 96-well plate. After becoming confluent, the medium is changed to a serum-free Dulbecco's modified MEM medium (Invitrogen) containing 5 μg/mL insulin, 5 μg/mL transferin, and 5 ng/mL selenious acid. One day later, the medium is changed to a serum-free Dulbecco's modified MEM medium (80 μl) containing 10 ng/mL IGF-II (Sigma) and 50 μg/mL L-ascorbic acid (Sigma), and a ten times concentration of a test compound (10 μl) is added thereto. Thirty minutes later, 25 ng/mL TGF-β (R&D System: 10 μL) is added to the medium, and the cells are cultured for about 44 hr. Twenty four hours before the termination of the culturing, ^3H-labeled proline (Amersham: 1 μCi) is added so as to be taken into collagen in the cells. When the culturing is terminated, 30% trichloroacetic acid (50 μL) is added to the medium. After leaving for 20 min, proteins are precipitated by centrifugation at 3000 rpm for 10 min. The supernatant is removed, and the residue is twice washed with 200 μL of a washing solution (ethanol:ether=3:1). The precipitate is air-dried, and the washing solution is sufficiently removed. After addition of 60 μL of a collagenase solution (2 mg/mL collagenase VII (Sigma), 50 mM Tris-HCl (pH 7.4), 5 mM CaCl2), the resulting mixture is treated at 37° C. for 2 hr to decompose collagen. Then, 90 μL of 15% trichloroacetic acid and 5% tannic acid are added thereto. The resulting mixture is left for 20 min and then centrifuged at 3000 rpm for 10 min. The supernatant (50 μL) is transferred to LumaPlate (PerkinElmer Lifescience) and is air-dried. Then, the amount of ^3H is measured by a Top Count.

Compound: Cc1cccc(-c2[nH]c(C(C)C)nc2-c2ccc(F)c(-c3c[nH]cn3)c2)n1 [Example 137, 2-{4-[4-Fluoro-3-(1H-imidazol-4-yl)phenyl]-2-isopropyl-1H-imidazol-5-yl}-6-methylpyridine]
IC50 [1]: 70 nM | melting point: 268 to 270 °C

Compound: Cc1cccc(-c2n[nH]cc2-c2ccc(F)c(-c3ccc4c(c3)CCS4(=O)=O)c2)n1 [Example 146, 2-{4-[3-(1,1-Dioxido-2,3-dihydro-1-benzothien-5-yl)-4-fluorophenyl]-1H-pyrazol-3-yl}-6-methylpyridine]
IC50 [1]: 80 nM | melting point: 107 to 109 °C

Compound: Cc1cccc(-c2n[nH]cc2-c2ccc(F)c(-c3ccc(C(C)(C)O)cn3)c2)n1 [Example 160, 2-(6-{2-Fluoro-5-[3-(6-methylpyridin-2-yl)-1H-pyrazol-4-yl]phenyl}pyridin-3-yl)propan-2-ol]
IC50 [1]: 190 nM | melting point: 169 to 172 °C

Compound: Cc1cccc(-c2n[nH]cc2-c2ccc(F)c(-c3c[nH]c(C(C)(C)O)n3)c2)n1 [Example 161, 2-(4-{2-Fluoro-5-[3-(6-methylpyridin-2-yl)-1H-pyrazol-4-yl]phenyl}-1H-imidazol-2-yl)propan-2-ol]
IC50 [1]: 100 nM | melting point: 135 to 137 °C

Compound: Cc1cccc(-c2n[nH]cc2-c2ccc(F)c(-c3cn(C)cn3)c2)n1 [Example 172, 2-{4-[4-Fluoro-3-(1-methyl-1H-imidazol-4-yl)phenyl]-1H-pyrazol-3-yl}-6-methylpyridine]
IC50 [1]: 20 nM | melting point: 168 to 169 °C

Compound: Cc1cccc(-c2n[nH]cc2-c2ccc(F)c(-c3ccc(N4CCOCC4)cn3)c2)n1 [Example 179, 4-(6-{2-Fluoro-5-[3-(6-methylpyridin-2-yl)-1H-pyrazol-4-yl]phenyl}pyridin-3-yl)morpholine]
IC50 [1]: 40 nM | melting point: 88 to 90 °C

Compound: Cc1cccc(-c2n[nH]cc2-c2ccc(F)c(-c3ccc(CN4CCOCC4)cn3)c2)n1 [Example 181, 4-[(6-{2-Fluoro-5-[3-(6-methylpyridin-2-yl)-1H-pyrazol-4-yl]phenyl}pyridin-3-yl)methyl]morpholine]
IC50 [1]: 20 nM | melting point: 68 to 70 °C

Compound: Cc1cccc(-c2n[nH]cc2-c2ccc(F)c(-c3ccc(S(N)(=O)=O)cc3)c2)n1 [Example 190, 2′-Fluoro-5′-[3-(6-methylpyridin-2-yl)-1H-pyrazol-4-yl]-1,1′-biphenyl-4-sulfonamide]
IC50 [1]: 40 nM | melting point: 115 to 118 °C

Compound: Cc1cccc(-c2n[nH]cc2-c2ccc(F)c(-c3cn[nH]c3)c2)n1 [Example 194, 2-{4-[4-Fluoro-3-(1H-pyrazol-4-yl)phenyl]-1H-pyrazol-3-yl}-6-methylpyridine]
IC50 [1]: 10 nM | melting point: 110 to 112 °C

Compound: Cc1cccc(-c2n[nH]cc2-c2ccc(F)c(-c3cnn(C)c3)c2)n1 [Example 195, 2-{4-[4-Fluoro-3-(1-methyl-1H-pyrazol-4-yl)phenyl]-1H-pyrazol-3-yl}-6-methylpyridine]
IC50 [1]: 10 nM | melting point: 155 to 156 °C

Continued by falling IC50 [1], values first:

IC50 [1]: 290 nM | melting point: 128 °C
Compound: NS(=O)(=O)c1ccc(-c2cc(-c3c[nH]nc3-c3ccccn3)ccc2F)cc1 [Example 202, 2′-Fluoro-5′-(3-pyridin-2-yl-1H-pyrazol-4-yl)-1,1′-biphenyl-4-sulfonamide]

IC50 [1]: 180 nM | melting point: 100 to 103 °C
Compound: Cc1cccc(-c2[nH]c(C(C)C)nc2-c2ccc(F)c(-c3cn(C)cn3)c2)n1 [Example 130, 2-{4-[4-Fluoro-3-(1-methyl-1H-imidazol-4-yl)phenyl]-2-isopropyl-1H-imidazol-5-yl}-6-methylpyridine]

IC50 [1]: 110 nM | melting point: 134 to 138 °C
Compound: Cc1cccc(-c2n[nH]cc2-c2ccc(F)c(-c3cn4c(n3)S(=O)(=O)CC4)c2)n1 [Example 212, 6-{2-Fluoro-5-[3-(6-methylpyridin-2-yl)-1H-pyrazol-4-yl]phenyl}-2,3-dihydroimidazo[2,1-b][1,3]thiazole 1,1-dioxide]

IC50 [1]: 50 nM | melting point: 248 °C
Compound: Cc1cccc(-c2n[nH]cc2-c2ccc(F)c(-c3cn(CCO)cn3)c2)n1 [Example 177, 2-(4-{2-Fluoro-5-[3-(6-methylpyridin-2-yl)-1H-pyrazol-4-yl]phenyl}-1H-imidazol-1-yl)ethanol]

IC50 [1]: 50 nM | melting point: 219 to 220 °C
Compound: Cc1cccc(-c2n[nH]cc2-c2ccc(F)c(-c3c[nH]c(CCO)n3)c2)n1 [Example 209, 2-(4-{2-Fluoro-5-[3-(6-methylpyridin-2-yl)-1H-pyrazol-4-yl]phenyl}-1H-imidazol-2-yl)ethanol]

IC50 [1]: 20 nM | melting point: 162 to 164 °C
Compound: Cc1cccc(-c2n[nH]cc2-c2ccc(F)c(-c3cc[nH]c3)c2)n1 [Example 189, 2-{4-[4-Fluoro-3-(1H-pyrrol-3-yl)phenyl]-1H-pyrazol-3-yl}-6-methylpyridine]

IC50 [1]: 10 nM | melting point: 229 to 233 °C
Compound: Cc1cccc(-c2n[nH]cc2-c2ccc(F)c(-c3c[nH]cn3)c2)n1 [Example 206, 2-{4-[4-Fluoro-3-(1H-imidazol-4-yl)phenyl]-1H-pyrazol-3-yl}-6-methylpyridine]

IC50 [1]: 10 nM | melting point: 153 to 155 °C
Compound: Cc1cccc(-c2nc(N)sc2-c2ccc(F)c(-c3cnn(C)c3)c2)n1 [Example 217, 5-[4-Fluoro-3-(1-methyl-1H-pyrazol-4-yl)phenyl]-4-(6-methylpyridin-2-yl)-1,3-thiazol-2-amine]
